Here are results for 13 compounds from US20230118577A1, “NEUROACTIVE STEROIDS AND PHARMACEUTICAL COMPOSITION CONTAINING THE SAME” (Brii Biosciences, Inc., priority 2020, published 2023).

In one assay the target is T1, GABAA α1β2γ2 (Homo sapiens, UniProt P14867+P47870).
T1 construct: expressed in transfected cells; host or cells: HEK293 expressing the Tetracycline repressor protein
Put plainly: Automated patch clamp electrophysiology (SyncroPatch), PAM mode, GABAA α1β2γ2 cell line. Format: cell-based. The settings on record: PAM mode; for EC50: HEK293 cells expressing human GABAA α1β2γ2, GABA EC20 14 μM, read-out: GABAA α1β2γ2 PAM EC50; for Emax: maximum fold increase in current relative to Allopregnanolone, GABA EC20 14 μM, read-out: GABAA α1β2γ2 PAM % Emax (to Allo). From the text: (§1) Cellular electrophysiology was used to measure the pharmacology properties of the GABA receptor modulators. The GABAA channels are expressed in stable cell lines described herein. The parental cell line used to express the human GABAA channels is the human embryonic kidney (HEK293) cell line expressing the Tetracycline repressor protein to support inducible expression of the target proteins.
(§2) For the GABAA α4β3δ cell line, the α4 and β3 subunits are under control of tetracycline inducible expression system, while the δ subunit is constitutively expressed. For the GABAA α1β2γ2 cell line, the α1 and β2 subunits are under control of tetracycline inducible expression system, whist the γ2 subunit is constitutively expressed.
(§3) Assessment of the compounds against GABAA α1β2γ2 and GABAA α4β3δ was performed using the SyncroPatch automated platform in positive allosteric modulator (PAM) mode. Six concentrations of 20 nM, 62 nM, 185 nM, 555 nM, 1667 nM and 5000 nM were tested across the plate, with a single concentration of compound per well. A minimum of 3 cells were obtained per each concentration of a compound.
(§4) Automated patch clamp-recordings were performed using the SyncroPatch 384PE. The voltage protocol generation and data collection were performed with PatchController384 V1.6.6 and Data Controller V1.6.0. A steady state voltage pulse at −80 mV was applied during the assay.
(§5) The stacked addition protocol was used, in which γ-aminobutyric acid (GABA) was rapidly applied and then washed off from the cell. To test for positive allosteric modulator activity (PAM), first the agonist GABA EC20 (EC20: 10 μM for GABAA α4β3δ channel and 14 μM GABA for the GABAA α1β2γ2 channel) was applied twice (with wash steps in-between) as a control and to show activation reproducibility, followed by a 1-2 minutes pre-incubation of the tested compound and then re-application of GABA EC20 in the presence of a testing compound. Finally, following a further wash step, maximum GABA (10 mM) was applied.
(§6) An Allopregnanolone concentration response was tested as the control PAM on the compound plates. The fold increase was generated using the following equation, (Icomp/Icontrol)−1, where Icomp is the current amplitude in the presence of the compound and Icontrol is the current amplitude in the presence of GABA EC20 alone. This builds an EC50 concentration-response curve, where 0 represents no PAM activity and >0 represents PAM activity.
(§7) A maximum % Emax for each compound is generated using the following equation, (IMaxComp/IAveMaxAllo)*100, where IMaxcomp is the individual maximum fold increase in current for each compound and IAveMaxAllo is the average maximum fold increase generated in the presence of Allopregnanolone. The resultant % Emax values are then averaged. The compound and Allopregnanolone values were obtained from separate cells which were tested in the same compound run. Two GABAA subtypes were tested against each of the compounds as well as the positive control, Allopregnanolone.
Background: The patch-clamp technique gives a direct electrical read-out from membranes.

A further assay has as its target T2, GABAA α4β3δ (Homo sapiens, UniProt P28472+P48169).
T2 construct: expressed in transfected cells; host or cells: HEK293 expressing the Tetracycline repressor protein
Put plainly: Automated patch clamp electrophysiology (SyncroPatch), PAM mode, GABAA α4β3δ cell line. Format: cell-based. The settings on record: PAM mode, GABA EC20 10 μM; for EC50: HEK293 cells expressing human GABAA α4β3δ, read-out: GABAA α4β3δ PAM EC50; for Emax: maximum fold increase in current relative to Allopregnanolone, read-out: GABAA α4β3δ PAM % Emax (to Allo).
Source text: as §1, §2, §3, §4, §5, §6, §7

T1 sequence (P14867 28-456): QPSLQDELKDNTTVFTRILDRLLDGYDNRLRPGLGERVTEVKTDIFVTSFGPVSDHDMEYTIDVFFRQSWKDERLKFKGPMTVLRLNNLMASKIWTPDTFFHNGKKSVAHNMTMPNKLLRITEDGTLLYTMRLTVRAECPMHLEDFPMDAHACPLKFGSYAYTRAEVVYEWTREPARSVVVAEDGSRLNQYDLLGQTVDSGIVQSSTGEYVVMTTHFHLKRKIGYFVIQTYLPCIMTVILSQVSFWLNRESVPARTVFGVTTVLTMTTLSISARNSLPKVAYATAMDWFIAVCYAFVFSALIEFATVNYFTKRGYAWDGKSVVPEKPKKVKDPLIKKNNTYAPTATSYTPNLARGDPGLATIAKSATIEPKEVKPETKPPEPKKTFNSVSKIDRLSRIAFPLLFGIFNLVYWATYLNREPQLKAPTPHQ
T1 sequence (P47870 25-512 limits assumed): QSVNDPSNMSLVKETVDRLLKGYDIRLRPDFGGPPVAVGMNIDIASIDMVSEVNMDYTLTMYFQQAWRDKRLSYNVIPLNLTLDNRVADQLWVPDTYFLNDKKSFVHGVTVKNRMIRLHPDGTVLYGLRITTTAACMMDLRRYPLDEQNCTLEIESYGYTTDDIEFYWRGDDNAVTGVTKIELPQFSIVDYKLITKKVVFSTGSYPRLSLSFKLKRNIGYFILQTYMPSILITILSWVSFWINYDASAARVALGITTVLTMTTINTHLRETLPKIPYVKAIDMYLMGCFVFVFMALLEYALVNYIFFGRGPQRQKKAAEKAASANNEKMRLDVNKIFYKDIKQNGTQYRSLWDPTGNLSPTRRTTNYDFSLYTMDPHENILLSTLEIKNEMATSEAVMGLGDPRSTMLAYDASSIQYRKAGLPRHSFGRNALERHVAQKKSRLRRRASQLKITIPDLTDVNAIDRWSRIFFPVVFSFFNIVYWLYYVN
T1 sequence (P18507 40-475 partner): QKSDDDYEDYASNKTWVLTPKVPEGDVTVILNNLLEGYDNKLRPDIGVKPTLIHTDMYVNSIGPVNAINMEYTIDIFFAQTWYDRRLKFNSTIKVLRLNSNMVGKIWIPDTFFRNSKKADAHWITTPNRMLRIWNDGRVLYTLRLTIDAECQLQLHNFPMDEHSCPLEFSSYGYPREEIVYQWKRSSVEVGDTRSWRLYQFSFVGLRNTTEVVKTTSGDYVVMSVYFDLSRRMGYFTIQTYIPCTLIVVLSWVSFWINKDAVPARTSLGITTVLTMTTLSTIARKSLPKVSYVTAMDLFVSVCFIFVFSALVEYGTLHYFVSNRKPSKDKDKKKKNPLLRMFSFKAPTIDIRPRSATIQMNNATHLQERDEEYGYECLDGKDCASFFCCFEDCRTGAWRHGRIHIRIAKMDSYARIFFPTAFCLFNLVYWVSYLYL
T2 sequence (P48169 36-554): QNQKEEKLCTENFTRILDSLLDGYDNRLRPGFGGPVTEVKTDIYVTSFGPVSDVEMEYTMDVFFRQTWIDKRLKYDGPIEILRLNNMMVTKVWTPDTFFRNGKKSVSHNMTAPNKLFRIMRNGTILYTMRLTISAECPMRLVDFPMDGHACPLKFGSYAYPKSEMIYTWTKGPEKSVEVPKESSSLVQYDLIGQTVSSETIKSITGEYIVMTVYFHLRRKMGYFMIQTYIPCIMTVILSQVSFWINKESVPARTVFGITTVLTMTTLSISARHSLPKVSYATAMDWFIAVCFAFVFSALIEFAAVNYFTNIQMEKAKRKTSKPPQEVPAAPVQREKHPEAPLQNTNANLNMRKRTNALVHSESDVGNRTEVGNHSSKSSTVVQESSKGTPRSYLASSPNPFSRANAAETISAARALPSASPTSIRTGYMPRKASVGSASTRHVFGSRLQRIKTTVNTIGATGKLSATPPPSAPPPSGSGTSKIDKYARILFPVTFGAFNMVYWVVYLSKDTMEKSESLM
T2 sequence (P28472 26-473): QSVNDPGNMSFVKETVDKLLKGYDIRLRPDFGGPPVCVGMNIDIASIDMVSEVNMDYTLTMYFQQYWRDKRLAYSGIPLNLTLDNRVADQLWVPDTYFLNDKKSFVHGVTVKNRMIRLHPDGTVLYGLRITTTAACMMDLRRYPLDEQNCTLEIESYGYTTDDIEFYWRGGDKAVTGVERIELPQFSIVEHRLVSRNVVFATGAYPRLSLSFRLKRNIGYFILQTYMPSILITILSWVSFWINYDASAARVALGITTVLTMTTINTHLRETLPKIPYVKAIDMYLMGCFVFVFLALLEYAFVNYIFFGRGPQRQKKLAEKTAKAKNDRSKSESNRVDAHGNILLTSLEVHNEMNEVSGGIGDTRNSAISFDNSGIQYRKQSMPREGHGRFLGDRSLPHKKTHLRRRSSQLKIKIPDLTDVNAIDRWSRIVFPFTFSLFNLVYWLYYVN
T2 sequence (O14764 17-452 partner limits assumed): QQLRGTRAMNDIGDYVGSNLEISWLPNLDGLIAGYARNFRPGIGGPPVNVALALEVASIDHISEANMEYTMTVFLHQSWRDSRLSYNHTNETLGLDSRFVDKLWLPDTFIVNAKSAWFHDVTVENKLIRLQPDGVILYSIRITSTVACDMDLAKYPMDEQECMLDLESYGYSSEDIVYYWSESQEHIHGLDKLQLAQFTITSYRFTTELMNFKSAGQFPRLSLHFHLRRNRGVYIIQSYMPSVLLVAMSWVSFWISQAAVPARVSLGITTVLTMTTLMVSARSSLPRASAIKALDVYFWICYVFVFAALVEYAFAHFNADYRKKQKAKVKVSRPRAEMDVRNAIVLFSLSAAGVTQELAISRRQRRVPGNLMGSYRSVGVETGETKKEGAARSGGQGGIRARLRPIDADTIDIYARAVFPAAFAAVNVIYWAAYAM

What is called EC50 is the concentration that produces a half-maximal response. As a reminder, the Emax is the greatest response seen or fitted, relative to the assay's reference. In the case of `CC1([C@H]2CC[C@H]3[C@@H]4CC[C@H]5C[C@](C)(O)CC[C@]5(C)[C@H]4CC[C@]23C)COC1` [Example 1, (3R,5S,8R,9S,10S,13S,14S,17S)-3,10,13-trimethyl-17-(3-methyloxetan-3-yl)-1,2,4,5,6,7,8,9,11,12,14,15,16,17-tetradecahydrocyclopenta[a]phenanthren-3-ol], on GABAA α1β2γ2, the EC50 was in the range of 500 to 1000 nM and the Emax was < 50%. In addition, on GABAA α4β3δ, the EC50 was > 1500 nM and the Emax was < 50%.

Consider `CC1([C@H]2CC[C@H]3[C@@H]4CC[C@@H]5C[C@](C)(O)CC[C@@H]5[C@H]4CC[C@]23C)COC1` [Example 2, (3R,5R,8R,9R,10S,13S,14S,17S)-3,13-dimethyl-17-(3-methyloxetan-3-yl)-2,4,5,6,7,8,9,10,11,12,14,15,16,17-tetradecahydro-1H-cyclopenta[a]phenanthren-3-ol], for which, at GABAA α1β2γ2, the EC50 was in the range of 1000 to 1500 nM and the maximal response (Emax) was > 90%. Moreover, on GABAA α4β3δ, the EC50 is < 500 nM and the Emax is > 90%.

Turning to `CC1([C@H]2CC[C@H]3[C@@H]4CC[C@H]5C[C@H](O)CC[C@]5(C)[C@H]4CC[C@]23C)CCO1` (stereo partly drawn) [Example 3, (3R,5S,8R,9S,10S,13S,14S,17S)-10,13-dimethyl-17-(2-methyloxetan-2-yl)-2,3,4,5,6,7,8,9,11,12,14,15,16,17-tetradecahydro-1H-cyclopenta[a]phenanthren-3-ol], on GABAA α1β2γ2, the EC50 lay within 1000 to 1500 nM and the Emax was < 50%. Further, on GABAA α4β3δ, the EC50 lay within 1000 to 1500 nM and the Emax is < 50%.

With `CC1([C@H]2CC[C@H]3[C@@H]4CC[C@H]5C[C@H](O)CC[C@]5(C)[C@H]4CC[C@]23C)COC1` [Example 5, (3R,5S,8R,9S,10S,13S,14S,17S)-10,13-dimethyl-17-(3-methyloxetan-3-yl)-2,3,4,5,6,7,8,9,11,12,14,15,16,17-tetradecahydro-1H-cyclopenta[a]phenanthren-3-ol], at GABAA α1β2γ2, the EC50 is 500 to 1000 nM and the Emax was in the range of 50 to 90%. Further, on GABAA α4β3δ, the EC50 was > 1500 nM and the Emax was < 50%.

On to `CC1([C@H]2CC[C@H]3[C@@H]4CC[C@@H]5C[C@H](O)CC[C@]5(C)[C@H]4CC[C@]23C)COC1` [Example 6, (3R,5R,8R,9S,10S,13S,14S,17S)-10,13-dimethyl-17-(3-methyloxetan-3-yl)-2,3,4,5,6,7,8,9,11,12,14,15,16,17-tetradecahydro-1H-cyclopenta[a]phenanthren-3-ol], for which, at GABAA α1β2γ2, the EC50 was < 500 nM and the maximal response (Emax) was > 90%. At GABAA α4β3δ, the EC50 fell in the range of 1000 to 1500 nM and the Emax was > 90%.

As for `CC1([C@H]2CC[C@H]3[C@@H]4CC[C@@H]5C[C@](C)(O)CC[C@@H]5[C@H]4CC[C@]23C)CCOC1` (stereo partly drawn) [Example 7, (3R,5R,8R,9R,10S,13S,14S,17S)-3,13-dimethyl-17-(3-methyltetrahydrofuran-3-yl)-2,4,5,6,7,8,9,10,11,12,14,15,16,17-tetradecahydro-1H-cyclopenta[a]phenanthren-3-ol], at GABAA α1β2γ2, the EC50 was 500 to 1000 nM and the Emax was > 90%. Besides, at GABAA α4β3δ, the EC50 fell in the range of 500 to 1000 nM and the maximum response (Emax) was > 90%.

Regarding `C[C@@]1(O)CC[C@H]2[C@H](CC[C@@H]3[C@@H]2CC[C@]2(C)[C@@H](C4(CC5CC5)COC4)CC[C@@H]32)C1` [Example 9, (3R,5R,8R,9R,10S,13S,14S,17S)-17-[3-(cyclopropylmethyl)oxetan-3-yl]-3,13-dimethyl-2,4,5,6,7,8,9,10,11,12,14,15,16,17-tetradecahydro-1H-cyclopenta[a]phenanthren-3-ol], the EC50 was < 500 nM on GABAA α1β2γ2 and > 1500 nM at GABAA α4β3δ. Further, the Emax was 50 to 90% at GABAA α1β2γ2 and > 90% on GABAA α4β3δ.

`C[C@@]1(O)CC[C@H]2[C@H](CC[C@@H]3[C@@H]2CC[C@]2(C)[C@@H](C4(F)COC4)CC[C@@H]32)C1` [Example 10, (3R,5R,8R,9R,10S,13S,14S,17S)-17-(3-fluorooxetan-3-yl)-3,13-dimethyl-2,4,5,6,7,8,9,10,11,12,14,15,16,17-tetradecahydro-1H-cyclopenta[a]phenanthren-3-ol]: at GABAA α1β2γ2, the EC50 is < 500 nM and the Emax is > 90%. Besides, at GABAA α4β3δ, the half-maximal effective concentration (EC50) was < 500 nM and the Emax was > 90%.

`C[C@@]1(O)CC[C@H]2[C@H](CC[C@@H]3[C@@H]2CC[C@]2(C)[C@@H](C4(CC#N)COC4)CC[C@@H]32)C1` [Example 13, 2-[3-[(3R,5R,8R,9R,10S,13S,14S,17S)-3-hydroxy-3,13-dimethyl-2,4,5,6,7,8,9,10,11,12,14,15,16,17-tetradecahydro-1H-cyclopenta[a]phenanthren-17-yl]oxetan-3-yl]acetonitrile]: at GABAA α1β2γ2, the EC50 fell in the range of 1000 to 1500 nM and the Emax was > 90%. Besides, on GABAA α4β3δ, the EC50 is 1000 to 1500 nM and the Emax is < 50%.

With `C[C@@]1(O)CC[C@H]2[C@H](CC[C@@H]3[C@@H]2CC[C@]2(C)[C@@H](C4(CF)COC4)CC[C@@H]32)C1` [Example 14, (3R,5R,8R,9R,10S,13S,14S,17S)-17-[3-(fluoromethyl)oxetan-3-yl]-3,13-dimethyl-2,4,5,6,7,8,9,10,11,12,14,15,16,17-tetradecahydro-1H-cyclopenta[a]phenanthren-3-ol], the EC50 at GABAA α1β2γ2 lay in the range of 1000 to 1500 nM; on GABAA α4β3δ, 500 to 1000 nM. Further, the results for the Emax at GABAA α1β2γ2 and at GABAA α4β3δ were > 90% and 50 to 90%, respectively.

For the compound `C[C@@]1(O)CC[C@H]2[C@H](CC[C@@H]3[C@@H]2CC[C@]2(C)[C@@H](C4(Cn5cc(C#N)cn5)COC4)CC[C@@H]32)C1` [Example 15, 1-[[3-[(3R,5R,8R,9R,10S,13S,14S,17S)-3-hydroxy-3,13-dimethyl-2,4,5,6,7,8,9,10,11,12,14,15,16,17-tetradecahydro-1H-cyclopenta[a]phenanthren-17-yl]oxetan-3-yl]methyl]pyrazole-4-carbonitrile], at GABAA α1β2γ2, the EC50 was < 500 nM and the Emax was > 90%. On GABAA α4β3δ, the EC50 is > 1500 nM and the maximal response (Emax) is > 90%.

As to `C[C@@]1(O)CC[C@H]2[C@H](CC[C@@H]3[C@@H]2CC[C@]2(C)[C@@H](C4(C#N)COC4)CC[C@@H]32)C1` [Example 18, 3-((3R,5R,8R,9R,10S,13S,14S,17S)-3-hydroxy-3,13-dimethyl-2,4,5,6,7,8,9,10,11,12,14,15,16,17-tetradecahydro-1H-cyclopenta[a]phenanthren-17-yl)oxetane-3-carbonitrile], the EC50 on GABAA α1β2γ2 and at GABAA α4β3δ was < 500 nM in each case. The Emax is > 90% on GABAA α1β2γ2 and 50 to 90% on GABAA α4β3δ.

Regarding `C[C@@]1(O)CC[C@H]2[C@H](CC[C@@H]3[C@@H]2CC[C@]2(C)[C@@H](C4(C(F)F)COC4)CC[C@@H]32)C1` [Example 19, (3R,5R,8R,9R,10S,13S,14S,17S)-17-[3-(difluoromethyl)oxetan-3-yl]-3,13-dimethyl-2,4,5,6,7,8,9,10,11,12,14,15,16,17-tetradecahydro-1H-cyclopenta[a]phenanthren-3-ol], the EC50 at GABAA α1β2γ2 and at GABAA α4β3δ was < 500 nM each time. Besides, the Emax at GABAA α1β2γ2 and at GABAA α4β3δ was > 90% in each case.
